From US12174198B2, “Methods of characterizing condensate-associated characteristics of compounds and uses thereof” (Dewpoint Therapeutics, Inc., priority 2019, dated 2024)

Tests used:
Format in all cases: physicochemical
[1] = test system: FUS-SNAP condensates versus PGL-3 condensates; assay: Condensate preference: ratio of FUS-SNAP I-in:I-out to PGL-3 I-in:I-out; settings: average FUS-SNAP I-in:I-out divided by average PGL-3 I-in:I-out
Procedure: (§1) The ratios of the average intensity measured in the target condensates and outside of the target condensates were calculated by dividing I-in by I-out, although dividing I-out by I-in could also have been used. The I-in:I-out ratios determined from the two different days of experiments were then averaged. The average I-in:I-out ratios for FUS-SNAP condensates are shown in FIG. 3 and the average I-in:I-out ratios for PGL-3 condensates are shown in FIG. 4. The standard deviation between the two experiments is represented by the error bars in FIG. 3 and FIG. 4.

FUS-SNAP condensates = molecular target: T1, FUS-SNAP condensates (Homo sapiens, UniProt P35637); assay: Fluorescence imaging of dye partitioning in FUS-SNAP condensates (I-in, I-out); settings: for Ratio of intensity inside:outside FUS-SNAP Condensates Day 1 / Ratio of intensity inside:outside FUS-SNAP Condensates Day 2 / Ratio of intensity inside:outside FUS-SNAP Condensates Average: I-in:I-out; for Ratio of intensity inside:outside FUS-SNAP Condensates Day 1 / Ratio of intensity inside:outside FUS-SNAP Condensates Day 2 / Ratio of intensity inside:outside FUS-SNAP Condensates Average / Intensity Inside with Dye Average / Intensity Inside with Dye 1 / Intensity Inside with Dye 2 / Intensity Inside with Dye 3 / Intensity Outside with Dye Average / Intensity Outside with Dye 1 / Intensity Outside with Dye 2 / Intensity Outside with Dye 3: 10 μM dye; for Ratio of intensity inside:outside FUS-SNAP Condensates Average: average of two days; for Intensity Inside with Dye Average / Intensity Inside with Dye 1 / Intensity Inside with Dye 2 / Intensity Inside with Dye 3 / Intensity Inside Dye-No Dye: inside FUS-SNAP condensate; for Intensity Inside with Dye Average / Intensity Inside with Dye 1 / Intensity Inside with Dye 2 / Intensity Inside with Dye 3 / Intensity Outside with Dye Average / Intensity Outside with Dye 1 / Intensity Outside with Dye 2 / Intensity Outside with Dye 3: 5 μM protein; for Intensity Inside with Dye Average / Intensity Outside with Dye Average: average of three images; for Intensity Inside with Dye Average / Intensity Inside with Dye 1 / Intensity Inside with Dye 2 / Intensity Inside with Dye 3 / Intensity Inside Dye-No Dye / Intensity Outside with Dye Average / Intensity Outside with Dye 1 / Intensity Outside with Dye 2 / Intensity Outside with Dye 3 / Intensity Outside (Dye-No Dye): one day of experiments; for Intensity Inside with Dye 1 / Intensity Outside with Dye 1: image 1; for Intensity Inside with Dye 2 / Intensity Outside with Dye 2: image 2; for Intensity Inside with Dye 3 / Intensity Outside with Dye 3: image 3; for Intensity Inside Dye-No Dye / Intensity Outside (Dye-No Dye): background corrected; for Intensity Outside with Dye Average / Intensity Outside with Dye 1 / Intensity Outside with Dye 2 / Intensity Outside with Dye 3 / Intensity Outside (Dye-No Dye): outside FUS-SNAP condensate
T1 sequence (P35637 1-526): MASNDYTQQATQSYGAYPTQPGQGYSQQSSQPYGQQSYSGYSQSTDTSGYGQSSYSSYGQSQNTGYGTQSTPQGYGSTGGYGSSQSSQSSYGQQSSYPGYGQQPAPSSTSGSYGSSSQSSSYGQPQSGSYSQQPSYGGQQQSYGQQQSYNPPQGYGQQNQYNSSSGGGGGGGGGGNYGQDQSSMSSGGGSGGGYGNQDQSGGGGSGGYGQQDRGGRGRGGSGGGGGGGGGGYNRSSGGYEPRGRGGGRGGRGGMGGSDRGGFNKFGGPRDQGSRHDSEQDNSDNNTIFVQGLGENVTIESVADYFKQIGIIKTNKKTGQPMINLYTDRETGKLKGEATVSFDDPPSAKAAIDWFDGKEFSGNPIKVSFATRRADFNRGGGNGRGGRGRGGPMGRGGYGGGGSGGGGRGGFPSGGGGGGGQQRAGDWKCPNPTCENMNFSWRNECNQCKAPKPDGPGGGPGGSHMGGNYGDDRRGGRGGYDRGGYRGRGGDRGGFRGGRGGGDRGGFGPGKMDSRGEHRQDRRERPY
Procedure: (§2) All dye-stocks were stored as 1 mM solutions in 100% DMSO. The dyes were dissolved in dilution buffer (DB: 14.7 mM Tris, pH 7.25, 1 mM DTT) to yield 11.765 μM dye in 1.1765 DMSO. 17 μl of dye was distributed in a 384 well non-binding plate (Greiner).
(§3) Either SNAP-tagged FUS protein or tag-free PGL-3 protein was thawed at room temperature for at least 10 min, and the buffer was exchanged to partitioning buffer (PB: 50 mM Tris pH 7.25, 500 mM KCl, 5% Glycerol, and 1 mM DTT). The protein was then diluted to 33.3 μM in PB. 3 μl of protein solution were added to the 384 well plate to initiate phase separation, yielding 20 μl of 5 μM protein and 10 μM dye in 75 mM KCl, 0.75% Glycerol, 20 mM Tris, 1 mM DTT, and 1% DMSO or for no dye control reactions, 20 μl of 5 μM protein in 75 mM KCl, 0.75% Glycerol, 20 mM Tris, 1 mM DTT.
(§4) A spinning disk confocal microscope was used to acquire images of the samples. A 60×oil high-NA objective lens was used to capture the condensate droplets. The laser power was set to 20% and the exposure times were adjusted to the fluorescence emission intensity specific for each dye. Exposure times ranged from 1-1000 ms. Appropriate filter settings were used, matching the excitation and emission spectra of the respective dyes. Three images per well were taken. The background signal of protein droplets in the absence of dye was recorded for all applied imaging conditions.
(§5) Fluorescence intensity was measured inside one exemplary target condensate (Intensity inside, I-in) per image and in a region next to the exemplary target condensate (Intensity outside, I-out) by hand using the image analysis software Fiji. An example depicting the regions measured is shown FIG. 2A. Three I-in and three I-out values were measured in total for each dye in each experiment and were averaged. The measured I-in and I-out values for FUS-SNAP condensates on one day of experiments are shown in Table 2 and Table 3, respectively. The measured I-in and I-out values for PGL-3 condensates on one day of experiments are shown in Table 4 and Table 5, respectively. All values were background corrected, based on the background images (no dye controls) taken with the same microscope conditions.
as §1

PGL-3 condensates = molecular target: T2, PGL-3 condensates (Caenorhabditis elegans, UniProt G5EBV6); assay: Fluorescence imaging of dye partitioning in PGL-3 condensates (I-in, I-out); settings: for Ratio of intensity inside:outside PGL-3 Condensates Day 1 / Ratio of intensity inside:outside PGL-3 Condensates Day 2 / Ratio of intensity inside:outside PGL-3 Condensates Average: I-in:I-out; for Ratio of intensity inside:outside PGL-3 Condensates Day 1 / Ratio of intensity inside:outside PGL-3 Condensates Day 2 / Ratio of intensity inside:outside PGL-3 Condensates Average / Intensity Inside with Dye Average / Intensity Inside with Dye 1 / Intensity Inside with Dye 2 / Intensity Inside with Dye 3 / Intensity Outside with Dye Average / Intensity Outside with Dye 1 / Intensity Outside with Dye 2 / Intensity Outside with Dye 3: 10 μM dye; for Ratio of intensity inside:outside PGL-3 Condensates Average: average of two days; for Intensity Inside with Dye Average / Intensity Inside with Dye 1 / Intensity Inside with Dye 2 / Intensity Inside with Dye 3 / Intensity Inside Dye-No Dye: inside PGL-3 condensate; for Intensity Inside with Dye Average / Intensity Inside with Dye 1 / Intensity Inside with Dye 2 / Intensity Inside with Dye 3 / Intensity Outside with Dye Average / Intensity Outside with Dye 1 / Intensity Outside with Dye 2 / Intensity Outside with Dye 3: 5 μM protein; for Intensity Inside with Dye Average / Intensity Outside with Dye Average: average of three images; for Intensity Inside with Dye Average / Intensity Inside with Dye 1 / Intensity Inside with Dye 2 / Intensity Inside with Dye 3 / Intensity Inside Dye-No Dye / Intensity Outside with Dye Average / Intensity Outside with Dye 1 / Intensity Outside with Dye 2 / Intensity Outside with Dye 3 / Intensity Outside (Dye-No Dye): one day of experiments; for Intensity Inside with Dye 1 / Intensity Outside with Dye 1: image 1; for Intensity Inside with Dye 2 / Intensity Outside with Dye 2: image 2; for Intensity Inside with Dye 3 / Intensity Outside with Dye 3: image 3; for Intensity Inside Dye-No Dye / Intensity Outside (Dye-No Dye): background corrected; for Intensity Outside with Dye Average / Intensity Outside with Dye 1 / Intensity Outside with Dye 2 / Intensity Outside with Dye 3 / Intensity Outside (Dye-No Dye): outside PGL-3 condensate
T2 sequence (G5EBV6 1-693): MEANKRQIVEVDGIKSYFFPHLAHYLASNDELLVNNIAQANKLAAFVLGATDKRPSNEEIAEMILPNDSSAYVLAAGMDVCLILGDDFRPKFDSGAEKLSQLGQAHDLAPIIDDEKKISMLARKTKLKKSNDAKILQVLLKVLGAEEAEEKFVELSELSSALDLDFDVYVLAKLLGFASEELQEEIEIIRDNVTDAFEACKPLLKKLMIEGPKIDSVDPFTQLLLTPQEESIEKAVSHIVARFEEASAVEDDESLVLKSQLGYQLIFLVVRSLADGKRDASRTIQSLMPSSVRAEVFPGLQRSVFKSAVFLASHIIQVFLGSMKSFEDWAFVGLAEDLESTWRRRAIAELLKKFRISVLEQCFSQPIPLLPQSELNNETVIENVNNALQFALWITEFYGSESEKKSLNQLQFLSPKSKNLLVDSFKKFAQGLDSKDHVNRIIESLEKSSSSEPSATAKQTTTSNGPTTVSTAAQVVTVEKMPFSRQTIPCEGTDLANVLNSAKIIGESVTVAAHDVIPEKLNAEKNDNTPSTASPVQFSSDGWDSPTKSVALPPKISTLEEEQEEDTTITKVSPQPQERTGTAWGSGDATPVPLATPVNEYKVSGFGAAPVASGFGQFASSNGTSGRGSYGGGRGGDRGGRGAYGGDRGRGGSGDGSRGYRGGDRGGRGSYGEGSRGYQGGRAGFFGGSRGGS
Procedure: as §2, §3, §4, §5, §1

| Molecule | Ratio of FUS-SNAP:PGL-3 [1] | Ratio of intensity inside:outside FUS-SNAP Condensates Day 1 (FUS-SNAP condensates) | Ratio of intensity inside:outside FUS-SNAP Condensates Day 2 (FUS-SNAP condensates) | Ratio of intensity inside:outside FUS-SNAP Condensates Average (FUS-SNAP condensates) | Intensity Inside with Dye Average (FUS-SNAP condensates) | Intensity Inside with Dye 1 (FUS-SNAP condensates) | Intensity Inside with Dye 2 (FUS-SNAP condensates) | Intensity Inside with Dye 3 (FUS-SNAP condensates) | Intensity Inside Dye-No Dye (FUS-SNAP condensates) | Intensity Outside with Dye Average (FUS-SNAP condensates) | Intensity Outside with Dye 1 (FUS-SNAP condensates) | Intensity Outside with Dye 2 (FUS-SNAP condensates) | Intensity Outside with Dye 3 (FUS-SNAP condensates) | Intensity Outside (Dye-No Dye) (FUS-SNAP condensates) | Ratio of intensity inside:outside PGL-3 Condensates Day 1 (PGL-3 condensates) | Ratio of intensity inside:outside PGL-3 Condensates Day 2 (PGL-3 condensates) | Ratio of intensity inside:outside PGL-3 Condensates Average (PGL-3 condensates) | Intensity Inside with Dye Average (PGL-3 condensates) | Intensity Inside with Dye 1 (PGL-3 condensates) | Intensity Inside with Dye 2 (PGL-3 condensates) | further results |
| --- | --- | --- | --- | --- | --- | --- | --- | --- | --- | --- | --- | --- | --- | --- | --- | --- | --- | --- | --- | --- | --- |
| 6-[Fluorescein-5(6)-carboxamido]-hexanoic acid [Dye 8] | 1.6 | 1.7 | 1.6 | 1.6 | 5354.9 | 5285.1 | 5631.6 | 5148.0 | 5219.7 | 3178.8 | 3064.0 | 3267.0 | 3205.5 | 3074.8 | 1.0 | 1.0 | 1.0 | 3538.6 | 3527.5 | 3608.1 | Intensity Inside with Dye 3 (PGL-3 condensates): 3480.3; Intensity Inside Dye-No Dye (PGL-3 condensates): 3392.1; Intensity Outside with Dye Average (PGL-3 condensates): 3496.8; Intensity Outside with Dye 1 (PGL-3 condensates): 3491.4; Intensity Outside with Dye 2 (PGL-3 condensates): 3551.4; Intensity Outside with Dye 3 (PGL-3 condensates): 3447.6; Intensity Outside (Dye-No Dye) (PGL-3 condensates): 3391.4 |
| N=C(N)c1ccc(-c2cc3ccc(C(=N)N)cc3[nH]2)cc1 [Dye 1, DAPI] | 1.5 | 4.6 | 3.3 | 4.0 | 622.4 | 638.5 | 599.9 | 628.8 | 502.4 | 228.6 | 233.9 | 233.3 | 218.7 | 108.6 | 1.9 | 3.3 | 2.6 | 212.6 | 211.3 | 211.0 | Intensity Inside with Dye 3 (PGL-3 condensates): 215.7; Intensity Inside Dye-No Dye (PGL-3 condensates): 91.9; Intensity Outside with Dye Average (PGL-3 condensates): 168.8; Intensity Outside with Dye 1 (PGL-3 condensates): 173.1; Intensity Outside with Dye 2 (PGL-3 condensates): 168.4; Intensity Outside with Dye 3 (PGL-3 condensates): 164.9; Intensity Outside (Dye-No Dye) (PGL-3 condensates): 48.4 |
| O=c1cc(C(F)(F)F)c2ccc(O)cc2o1 [Dye 2, 7-Hydroxy-4-(trifluoromethyl)-coumarin] | 1.2 | 1.4 | 1.2 | 1.3 | 280.9 | 278.2 | 278.1 | 286.5 | 160.9 | 232.0 | 235.7 | 228.5 | 232.0 | 112.0 | 1.0 | 1.1 | 1.1 | 269.8 | 273.9 | 267.0 | Intensity Inside with Dye 3 (PGL-3 condensates): 268.3; Intensity Inside Dye-No Dye (PGL-3 condensates): 149.0; Intensity Outside with Dye Average (PGL-3 condensates): 262.4; Intensity Outside with Dye 1 (PGL-3 condensates): 263.1; Intensity Outside with Dye 2 (PGL-3 condensates): 258.0; Intensity Outside with Dye 3 (PGL-3 condensates): 266.0; Intensity Outside (Dye-No Dye) (PGL-3 condensates): 141.9 |
